In paper PMC6390583 (BMC rheumatology, 2018):

How the values were obtained:
[1] = system: IL-6 induced STAT3 phosphorylation; experiment: IL-6 induced STAT3 phosphorylation in TF-1 cells; format: cell-based; conditions: Homo sapiens, JAK 1, read-out: Human IC50, IL-6 pSTAT3
Procedure: (§1) IL-6 and Oncostatin M (OSM) induced STAT3 phosphorylation was assessed in the human erythroleukemia TF-1 cell line. Erythropoietin-induced STAT5 phosphorylation was assessed in the human UT-7 cell line. IL-2 and IL-15 induced STAT5 phosphorylation was assessed in activated human T-cells. Detection of phosphorylated STATs was accomplished with the SureFire pSTAT5 or pSTAT3 Assay kit (Perkin Elmer, Hopkinton, MA) per standard manufacturer’s protocol, with the exception of an overnight incubation following addition of donor beads before detection on the EnVision (Perkin Elmer, Hopkinton, MA). IFNγ induced STAT1 phosphorylation was assessed in the CD14+ monocyte population in human PBMC by flow cytometry. CD14 BV421 was purchased from BD Biosciences (San Jose, CA). STAT1 PE ([…]) was purchased from ThermoFisher Scientific (Waltham, MA). IL-4 and IL-13 induced STAT6 phosphorylation and IL-31 induced STAT3 phosphorylation were assessed in adult human epithelial keratinocytes (HEKa, ThermoFisher Scientific, Waltham, MA) by flow cytometry. STAT6 PE (pY641) and STAT3 PE (Y705) were purchased from BD Biosciences (San Jose, CA).

[2] = system: IL-15 induced STAT5 phosphorylation; experiment: IL-15 induced STAT5 phosphorylation in activated T-cells; format: cell-based; conditions: Homo sapiens, T-cell; T-blasts, JAK 1/3; read-out: Human IC50, IL-15 pSTAT5
Procedure: as §1

[3] = system: IFNγ induced STAT1 phosphorylation; experiment: IFNγ induced STAT1 phosphorylation in CD14+ monocytes of PBMC; format: cell-based; conditions: Homo sapiens, Monocyte, JAK 1/2, read-out: Human IC50, IFNγ pSTAT1
Procedure: as §1

[4] = system: IL-13 induced STAT6 phosphorylation; experiment: IL-13 induced STAT6 phosphorylation in HEKa; format: cell-based; conditions: Homo sapiens, JAK 1/TYK2, read-out: Human IC50, IL-13 pSTAT6
Procedure: as §1

[5] = system: IL-31 induced STAT3 phosphorylation; experiment: IL-31 induced STAT3 phosphorylation in HEKa; format: cell-based; conditions: Homo sapiens, JAK 1/2, read-out: Human IC50, IL-31 pSTAT3
Procedure: as §1

[6] = system: adjuvant induced arthritis; experiment: Rat adjuvant-induced arthritis (AIA) model; format: in vivo
reticulocyte deployment = experiment: Epo induced reticulocyte deployment assay; format: in vivo; conditions: rat, Epo challenge, highest concentration tested
Procedure: Naïve male Lewis rats were injected intravenously with either PBS or 1000 IU of epoetin α (Procrit®, Janssen Products, LP, Horsham, PA) for two consecutive days. Reticulocytes were measured on day 4 by flow cytometry using thiozole orange as a dye as previously described.

IL-6 induced pSTAT3 = experiment: Clinical ex vivo IL-6 stimulation of whole blood, pSTAT3; format: in vivo, healthy volunteers
Procedure: (§2) Recombinant human IL-6 (400 ng/ml), or IL-7 (400 ng/ml), (R&D Systems, Minneapolis, MN) was added to blood and incubated for 10 min at 37°C. Surface antibodies were added (CD14-APC, CD3-fluorescein isothiocyanate [FITC]; BD Biosciences, San Jose, CA) and incubated on ice for an additional 20 min. Samples were lysed (Lyse/Fix, BD Biosciences, San Jose, CA) and incubated for 10 min at 37°C. Samples were washed and stored at − 70°C. For intracellular staining, samples were thawed, washed, and resuspended in BD Perm buffer III (BD Biosciences, San Jose, CA) on ice for 30 min. Samples were washed and stained with pSTAT5-PE or pSTAT3-PE (BD Biosciences, San Jose, CA) for 60 min at room temperature and then analyzed immediately on a FACSCalibur. Geometric means were determined using FlowJo analysis software.

IL-7 driven pSTAT5 = experiment: Clinical ex vivo IL-7 stimulation of whole blood, pSTAT5; format: in vivo; conditions: healthy volunteers, 12 mg of upadacitinib, 1 h post dose
Procedure: as §2

Aurora 1 = Aurora 1 (Homo sapiens, UniProt Q96GD4); experiment: trFRET binding kinome profiling
Procedure: (§3) JAK activity assays using isolated kinase domains in the presence of 0.1 mM ATP and trFRET kinome profiling were conducted as described previously (17).

BRAF = BRAF (Homo sapiens, UniProt P15056); experiment: trFRET binding kinome profiling
Procedure: as §3

CAMK2A = CAMK2A (Homo sapiens, UniProt Q9UQM7); experiment: trFRET binding kinome profiling
Procedure: as §3

CAMKK2 = CAMKK2 (Homo sapiens, UniProt Q96RR4); experiment: trFRET binding kinome profiling
Procedure: as §3

DYRK1B = DYRK1B (Homo sapiens, UniProt Q9Y463); experiment: trFRET binding kinome profiling
Procedure: as §3

Fyn = Fyn (Homo sapiens, UniProt P06241); experiment: trFRET binding kinome profiling
Procedure: as §3

Gsk3b = Gsk3b (Homo sapiens, UniProt P49841); experiment: trFRET binding kinome profiling
Procedure: as §3

MAP4K2 = MAP4K2 (Homo sapiens, UniProt Q12851); experiment: trFRET binding kinome profiling
Procedure: as §3

Nek2 = Nek2 (Homo sapiens, UniProt P51955); experiment: trFRET binding kinome profiling
Procedure: as §3

PDGFRA V561D = PDGFRA V561D (Homo sapiens, UniProt P16234, V561D); experiment: trFRET binding kinome profiling
Procedure: as §3

PKA = PKA (Homo sapiens, UniProt P17612); experiment: trFRET binding kinome profiling
Procedure: as §3

Plk3 = Plk3 (Homo sapiens, UniProt Q9H4B4); experiment: trFRET binding kinome profiling
Procedure: as §3

Prkcn = Prkcn (Homo sapiens, UniProt O94806); experiment: trFRET binding kinome profiling
Procedure: as §3

Rsk2 = Rsk2 (Homo sapiens, UniProt P51812); experiment: trFRET binding kinome profiling
Procedure: as §3

TBK1 = TBK1 (Homo sapiens, UniProt Q9UHD2); experiment: trFRET binding kinome profiling
Procedure: as §3

TYRO3 = TYRO3 (Homo sapiens, UniProt Q06418); experiment: trFRET binding kinome profiling
Procedure: as §3

Wee1 = Wee1 (Homo sapiens, UniProt P30291); experiment: trFRET binding kinome profiling
Procedure: as §3

Zipk = Zipk (Homo sapiens, UniProt O43293); experiment: trFRET binding kinome profiling
Procedure: as §3

Fyn, sequence (P06241 whole entry, species assumed): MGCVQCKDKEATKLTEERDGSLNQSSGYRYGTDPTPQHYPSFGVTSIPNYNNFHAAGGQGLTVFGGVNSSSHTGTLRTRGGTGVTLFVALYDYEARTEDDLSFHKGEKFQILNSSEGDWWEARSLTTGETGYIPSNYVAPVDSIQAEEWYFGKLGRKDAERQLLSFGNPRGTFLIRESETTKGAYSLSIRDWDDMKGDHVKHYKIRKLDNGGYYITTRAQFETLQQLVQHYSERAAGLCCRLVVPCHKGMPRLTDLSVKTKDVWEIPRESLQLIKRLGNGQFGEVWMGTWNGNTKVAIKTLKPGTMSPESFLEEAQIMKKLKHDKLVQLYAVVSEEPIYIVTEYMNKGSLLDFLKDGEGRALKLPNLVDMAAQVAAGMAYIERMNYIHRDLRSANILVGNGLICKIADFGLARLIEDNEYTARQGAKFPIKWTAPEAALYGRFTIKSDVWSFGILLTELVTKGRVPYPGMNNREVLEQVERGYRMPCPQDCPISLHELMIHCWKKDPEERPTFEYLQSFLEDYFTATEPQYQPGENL
Prkcn, sequence (O94806 whole entry, species assumed): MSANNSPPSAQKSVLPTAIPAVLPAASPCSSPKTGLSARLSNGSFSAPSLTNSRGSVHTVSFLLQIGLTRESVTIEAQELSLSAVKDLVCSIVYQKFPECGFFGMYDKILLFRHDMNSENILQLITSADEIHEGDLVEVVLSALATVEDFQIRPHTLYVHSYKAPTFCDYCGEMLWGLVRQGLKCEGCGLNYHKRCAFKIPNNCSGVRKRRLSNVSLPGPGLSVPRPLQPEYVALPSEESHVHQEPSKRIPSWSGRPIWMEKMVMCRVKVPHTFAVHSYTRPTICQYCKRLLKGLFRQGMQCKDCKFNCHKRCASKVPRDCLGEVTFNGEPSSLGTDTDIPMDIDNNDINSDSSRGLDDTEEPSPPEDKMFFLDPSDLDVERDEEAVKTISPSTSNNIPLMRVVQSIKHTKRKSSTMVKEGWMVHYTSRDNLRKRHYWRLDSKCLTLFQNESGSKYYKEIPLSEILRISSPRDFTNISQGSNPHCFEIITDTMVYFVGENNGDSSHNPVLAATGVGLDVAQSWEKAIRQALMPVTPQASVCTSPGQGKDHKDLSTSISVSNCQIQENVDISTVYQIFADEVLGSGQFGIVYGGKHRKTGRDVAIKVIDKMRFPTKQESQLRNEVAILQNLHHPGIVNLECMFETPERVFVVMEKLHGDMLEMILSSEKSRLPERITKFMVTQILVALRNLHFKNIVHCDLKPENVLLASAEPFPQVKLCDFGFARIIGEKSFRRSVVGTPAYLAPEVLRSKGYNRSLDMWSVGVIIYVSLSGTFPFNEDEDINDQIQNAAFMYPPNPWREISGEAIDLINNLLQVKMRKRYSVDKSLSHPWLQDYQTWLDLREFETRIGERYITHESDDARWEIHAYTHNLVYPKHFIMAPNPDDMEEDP
CAMKK2, sequence (Q96RR4 whole entry, species assumed): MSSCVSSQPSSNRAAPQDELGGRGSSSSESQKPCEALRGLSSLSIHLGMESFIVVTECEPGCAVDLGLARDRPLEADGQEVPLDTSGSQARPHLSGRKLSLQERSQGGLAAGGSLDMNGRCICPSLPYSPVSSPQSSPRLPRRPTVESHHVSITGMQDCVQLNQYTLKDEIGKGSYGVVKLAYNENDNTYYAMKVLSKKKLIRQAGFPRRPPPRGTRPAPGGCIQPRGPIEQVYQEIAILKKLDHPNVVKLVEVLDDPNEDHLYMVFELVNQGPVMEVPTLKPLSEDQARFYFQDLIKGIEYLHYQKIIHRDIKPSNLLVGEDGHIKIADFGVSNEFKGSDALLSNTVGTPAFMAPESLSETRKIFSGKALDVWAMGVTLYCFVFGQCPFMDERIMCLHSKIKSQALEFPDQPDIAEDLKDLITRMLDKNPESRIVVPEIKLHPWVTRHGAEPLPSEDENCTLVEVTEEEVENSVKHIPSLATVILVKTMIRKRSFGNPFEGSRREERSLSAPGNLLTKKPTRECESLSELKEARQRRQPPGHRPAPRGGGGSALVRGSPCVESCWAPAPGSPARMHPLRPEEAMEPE
Plk3, sequence (Q9H4B4 whole entry, species assumed): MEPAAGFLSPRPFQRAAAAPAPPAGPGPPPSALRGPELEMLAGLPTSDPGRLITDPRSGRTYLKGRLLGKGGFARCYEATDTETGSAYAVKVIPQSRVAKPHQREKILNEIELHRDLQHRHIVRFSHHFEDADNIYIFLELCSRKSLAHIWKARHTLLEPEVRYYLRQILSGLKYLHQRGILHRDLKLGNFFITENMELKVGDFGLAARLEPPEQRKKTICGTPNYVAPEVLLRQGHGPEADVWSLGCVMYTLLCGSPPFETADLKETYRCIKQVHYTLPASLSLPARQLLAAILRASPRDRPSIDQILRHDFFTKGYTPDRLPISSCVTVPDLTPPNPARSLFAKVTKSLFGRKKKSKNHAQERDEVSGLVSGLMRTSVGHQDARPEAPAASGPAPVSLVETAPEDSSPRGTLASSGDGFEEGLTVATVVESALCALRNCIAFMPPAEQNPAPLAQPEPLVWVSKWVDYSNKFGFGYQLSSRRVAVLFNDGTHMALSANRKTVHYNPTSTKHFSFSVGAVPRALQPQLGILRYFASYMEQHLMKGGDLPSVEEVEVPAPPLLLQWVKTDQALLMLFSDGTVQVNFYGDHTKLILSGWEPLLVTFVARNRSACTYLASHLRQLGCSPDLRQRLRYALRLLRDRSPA
Wee1, sequence (P30291 whole entry, species assumed): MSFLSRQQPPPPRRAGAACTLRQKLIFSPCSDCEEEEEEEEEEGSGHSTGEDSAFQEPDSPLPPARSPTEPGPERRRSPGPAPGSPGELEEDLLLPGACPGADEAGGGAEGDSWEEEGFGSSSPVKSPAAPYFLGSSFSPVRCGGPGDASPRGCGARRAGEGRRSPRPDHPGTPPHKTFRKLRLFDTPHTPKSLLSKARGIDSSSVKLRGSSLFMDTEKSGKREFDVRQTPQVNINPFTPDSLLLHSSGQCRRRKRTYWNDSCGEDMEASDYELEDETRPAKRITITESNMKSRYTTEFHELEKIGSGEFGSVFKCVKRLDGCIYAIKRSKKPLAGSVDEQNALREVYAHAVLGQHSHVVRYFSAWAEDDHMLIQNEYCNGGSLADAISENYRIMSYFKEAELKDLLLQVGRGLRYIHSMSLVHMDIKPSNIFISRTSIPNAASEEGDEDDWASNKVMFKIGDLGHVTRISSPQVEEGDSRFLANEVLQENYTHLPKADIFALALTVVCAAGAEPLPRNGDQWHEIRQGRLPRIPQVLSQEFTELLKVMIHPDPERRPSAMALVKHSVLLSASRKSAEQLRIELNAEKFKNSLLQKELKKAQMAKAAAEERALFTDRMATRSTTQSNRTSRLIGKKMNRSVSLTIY
MAP4K2, sequence (Q12851 whole entry, species assumed): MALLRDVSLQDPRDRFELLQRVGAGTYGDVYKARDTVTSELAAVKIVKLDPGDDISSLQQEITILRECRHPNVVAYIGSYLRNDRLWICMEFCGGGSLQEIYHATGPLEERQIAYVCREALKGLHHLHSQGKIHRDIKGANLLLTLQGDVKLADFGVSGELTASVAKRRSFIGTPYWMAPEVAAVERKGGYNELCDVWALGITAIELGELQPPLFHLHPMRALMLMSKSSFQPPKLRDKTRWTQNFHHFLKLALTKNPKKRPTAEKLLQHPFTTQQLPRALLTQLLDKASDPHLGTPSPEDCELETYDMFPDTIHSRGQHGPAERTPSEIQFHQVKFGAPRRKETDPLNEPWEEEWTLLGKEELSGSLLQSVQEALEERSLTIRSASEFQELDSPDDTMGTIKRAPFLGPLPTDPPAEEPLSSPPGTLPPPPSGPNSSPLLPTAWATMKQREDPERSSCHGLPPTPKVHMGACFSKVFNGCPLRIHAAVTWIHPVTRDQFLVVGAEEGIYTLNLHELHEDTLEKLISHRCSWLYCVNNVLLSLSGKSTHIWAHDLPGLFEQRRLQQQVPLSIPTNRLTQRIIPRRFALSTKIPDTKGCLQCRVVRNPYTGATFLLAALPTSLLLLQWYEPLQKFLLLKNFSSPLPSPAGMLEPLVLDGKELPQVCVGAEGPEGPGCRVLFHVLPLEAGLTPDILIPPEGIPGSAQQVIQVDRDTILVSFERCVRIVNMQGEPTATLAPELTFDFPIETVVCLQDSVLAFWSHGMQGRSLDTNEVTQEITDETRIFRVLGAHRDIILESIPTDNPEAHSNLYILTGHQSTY
Aurora 1, sequence (Q96GD4 whole entry, species assumed, the tested form may be a part): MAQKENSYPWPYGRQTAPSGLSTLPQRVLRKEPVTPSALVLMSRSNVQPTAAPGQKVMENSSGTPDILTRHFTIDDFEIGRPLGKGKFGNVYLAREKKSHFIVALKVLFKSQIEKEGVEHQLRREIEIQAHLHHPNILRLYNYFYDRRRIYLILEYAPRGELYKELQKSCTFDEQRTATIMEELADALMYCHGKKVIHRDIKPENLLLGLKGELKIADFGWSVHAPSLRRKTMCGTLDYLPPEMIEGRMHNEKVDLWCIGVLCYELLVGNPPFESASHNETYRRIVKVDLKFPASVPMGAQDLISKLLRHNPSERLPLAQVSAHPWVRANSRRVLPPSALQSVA
Zipk, sequence (O43293 whole entry, species assumed): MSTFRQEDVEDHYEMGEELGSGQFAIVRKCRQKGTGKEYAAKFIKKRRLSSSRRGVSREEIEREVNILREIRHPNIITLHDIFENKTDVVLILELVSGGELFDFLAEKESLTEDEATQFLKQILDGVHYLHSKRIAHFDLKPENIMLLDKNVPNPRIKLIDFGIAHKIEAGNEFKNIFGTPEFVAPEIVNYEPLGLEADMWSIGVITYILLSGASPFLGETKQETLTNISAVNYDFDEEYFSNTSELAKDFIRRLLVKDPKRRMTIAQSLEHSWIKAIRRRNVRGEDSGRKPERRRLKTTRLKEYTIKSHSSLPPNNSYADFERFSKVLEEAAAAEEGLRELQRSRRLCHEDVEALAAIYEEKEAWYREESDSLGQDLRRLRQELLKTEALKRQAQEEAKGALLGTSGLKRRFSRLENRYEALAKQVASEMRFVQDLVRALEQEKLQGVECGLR

`CC[C@@H]1CN(C(=O)NCC(F)(F)F)C[C@@H]1c1cnc2cnc3[nH]ccc3n12` [upadacitinib, (3S,4R)-3-ethyl-4-(3H-imidazo [1,2-a]pyrrolo [2,3-e]pyrazin-8-yl)-N-(2,2,2-trifluoroethyl) pyrrolidine-1-carboxamide] gave an IC50 [1] of 0.011 µM, an IC50 [2] of 0.022 µM and an IC50 [3] of 0.019 µM. For the same molecule, the IC50 [4] was 0.004 µM, the IC50 [5] was 0.003 µM and the Histological endpoints ([6]; 3 and 10 mg/kg dose groups, data not shown) was “improved synovial hypertrophy, inflammation, cartilage damage and bone erosion”. For the same molecule, the “Reduction in paw swelling at clinical AUC exposures” value ([6]; exposures for 6 mg BID and 12 mg BID clinical doses of upadacitinib) was over 90%, the “AUC60, AUC0-12 drug concentration necessary to achieve 60% inhibition of paw swelling” value ([6]; oral BID) was 83 ng·h/mL and the “Effect on paw swelling” value ([6]; oral, dosed from day 7) was “dose and exposure dependent reductions in paw swelling”. The “Maximal inhibition of reticulocyte deployment” value (reticulocyte deployment) was ~ 40%, the inhibition at 3 mg (IL-6 induced pSTAT3; Homo sapiens, 1 h) was about 50% and the “Dose reaching maximal pSTAT3 inhibition” value (IL-6 induced pSTAT3; healthy volunteers, IL-6 stimulation, 1 h post dose) was 36 mg. For the same molecule, the “Inhibition of IL-7 driven pSTAT5” value (IL-7 driven pSTAT5) was ~ 70%, the IC50 (Aurora 1) was over 5.5 µM and the IC50 (BRAF) was over 10 µM. It also gave an IC50 (CAMK2A) of over 10 µM, an IC50 (CAMKK2) of over 10 µM and an IC50 (DYRK1B) of over 10 µM. The IC50 (Fyn) was over 10 µM, the IC50 (Gsk3b) was over 10 µM and the IC50 (MAP4K2) was over 10 µM. It also gave an IC50 (Nek2) of over 10 µM, an IC50 (PDGFRA V561D) of over 10 µM and an IC50 (PKA) of over 10 µM. The IC50 (Plk3) was over 10 µM, the IC50 (Prkcn) was over 10 µM and the IC50 (Rsk2) was over 9.6 µM. The IC50 (TBK1) was over 10 µM, the IC50 (TYRO3) was over 10 µM and the IC50 (Wee1) was over 10 µM. The IC50 (Zipk) was over 10 µM.
